Reference: patent US20230220387A1, “D-SERINE TRANSPORT MODIFIER AND SCREENING METHOD THEREOF, AND SCREENING METHOD OF D-SERINE TRANSPORTER PROTEIN” (Kagami Inc., priority 2019, published 2023)
Entries after “also recorded” stand apart in the source; their conditions may differ.

Assays:
Type in all cases: cell-based
[1] = test system: HEK293 cells transiently transfected with pCMV14-hSLC5A8-3×FLAG (SMCT1); experiment: D-serine toxicity test in transient expression system, SMCT1; settings: SMCT1-expressing HEK293 cells; 2 days; XTT
Experimental: (§1) 2-4. Cell survival measurement A D-serine toxicity test was carried out using HEK293 in a transient expression system. The cells were seeded in a 96-well plate at 10,000 cells/well, and transfected with […] DNA (pCMV14 as Mock, pCMV14-hSLC5A8-3×FLAG as SMCT1 and pCMV14-hSLC5A12-3×FLAG as SMCT2). At 24 hours after transfection they were treated with D-serine and further incubated for 2 days. The proliferated cell count was determined by XTT measurement. The XTT solution comprised 1 mg/ml of XTT (2,3-Bis-(2-Methoxy-4-nitro-5-sulfophenyl)-2H-tetrazolium-5-carboxanilide, disodium salt: Biotium, CA, USA) mixed with 7.5 μg/ml of Phenazine methosulfate (Nacalai Tesque, Inc.), and was added to the cultured cells. The incubation reaction was carried out for 4 hours at 37° C., 5% CO2. The absorbance at 450 nm was then measured with a microplate reader.

Flp-In TREx293 cells = experiment: Cell proliferation by XTT assay in Flp-In TREx293 cells treated with L- or D-serine
Experimental: as §1
(§2) A toxicity test for stable cells was carried out using an FlpIn293TR-stable cell line. The cells were seeded in a poly-D-lysine-coated 96-well plate at 6.5×10^3 cells/well (Mock) and 8×10^3 cells/well (hSLC5A8 and hSLC5A12 cells), while in antibiotic-free DMEM+dialyzed FBS medium. After 24 hours, they were treated with L- or D-serine at different concentrations and 1 mg/L of doxycycline hyclate was added to induce recombination gene expression. For the ASCT2 knockdown experiment, the seeded cells were transfected after 12 hours with ASCT2 siRNA at 2 pmol/well, using Lipofectamine 3000. The effect of ibuprofen was analyzed by simultaneous addition with D-serine treatment. The cells were cultured for 2 days to 80% confluence. The proliferated cell count was determined by XTT measurement in the same manner as described above.

[2] = test system: HEK293 cells transiently transfected with pCMV14-hSLC5A12-3×FLAG (SMCT2); experiment: D-serine toxicity test in transient expression system, SMCT2; settings: SMCT2-expressing HEK293 cells; 2 days; XTT
Experimental: as §1

[3] = test system: FlpIn293TR-hSLC5A12-3×FLAG (SMCT2)-stable cell line; experiment: Toxicity test (XTT) in SMCT2-stable cell line; settings: FlpIn293TR-Mock or SMCT2-stable cell line; SMCT2 cells compared to Mock cells
Experimental: as §2

[4] = test system: FlpIn293TR-hSLC5A8-3×FLAG (SMCT1)-stable cell line; experiment: Toxicity test (XTT) in SMCT1-stable cell line; settings: SMCT1 cells compared to Mock cells
Experimental: as §2

[5] = test system: HEK293 cells transiently transfected with a cDNA clone of a transporter candidate; experiment: Cytotoxicity test (XTT) for screening of D-serine transporter candidates
Experimental: as §1
A total of 19 D-serine transporter candidates were selected from the proteome results. A cytotoxicity test for screening of D-serine transporter was developed based on the idea that intracellular D-serine accumulated via D-serine transporter function induces cytotoxicity. HEK293 cells were transiently transfected with a cDNA clone and the cells were treated with 15 mM or 25 mM D-serine to observe the initial stage and stationary stage of the toxicity effect. […]

HEK293 cells = experiment: [3H]D-serine transport in HEK293 cells; settings: endogenous ASCT2
Experimental: (§3) The cell lines HEK293 and Flp-In TREx 293 were cultured at 37° C. in a 5% CO2 environment, using Dulbecco's Modified Eagle Medium (DMEM) containing 10% fetal bovine serum (FBS), 100 units/ml Penicillin G and 100 μg/ml streptomycin (P/S). The cells were seeded in a Poly-D-lysine coated 24-well plate at 6×10^4 cells/well. After culturing for 3 days in DMEM Medium containing 10% FBS and P/S, the cell were used for transport activity measurement. Before transport activity measurement, the cells were washed with transport activity measurement buffer (PBS+1 g/L D-glucose) prewarmed to 37° C. and incubated for 10 minutes at 37° C. in 500 μL of buffer. The transport activity measurement was initiated by addition of D-[^3H]serine-containing transport activity buffer at the indicated concentration. The reaction product produced after addition was incubated at 37° C. for the indicated time. The reaction was suspended by removing the D-[^3H]serine-containing transport activity buffer, and the product was washed 3 times with thoroughly cooled transport activity buffer. The cells were dissolved with 500 μL of 0.1 N NaOH and incubated for at least one hour. Protein concentration of the cell lysate was measured by BCA protein assay. The lysate was mixed with 1 mL of Emulsifier Safe (PerkinElmer, MA, USA) and the radioactivity of the lysate was measured with a β-scintillation counter (LSC-8000, Hitachi). In transport activity measurement for Na^+, HBSS (+Na^+: 125 mM NaCl, −Na^+: choline chloride, 4.8 mM KCl, 1.2 mM MgSO4, 1.2 mM KH2PO4, 1.3 mM CaCl2), 5.6 mM D-glucose and 25 mM HEPES was used instead of PBS. For the inhibition experiment, a non-radioactive labeled compound was included as the uptake substrate as shown in the drawing.

[6] = test system: Flp-In TREx 293 cell line; experiment: D-[3H]serine uptake in Flp-In TREx 293 cell line in the presence of inhibitors; settings: 10 minutes
Experimental: as §3

ASCT2 = target: T1, ASCT2 (Homo sapiens, UniProt Q15758); experiment: [3H]D-serine transport in HEK293 cells transfected with ASCT2
T1 construct: expressed in transfected cells; host or cells: HEK293 cells
T1 sequence (Q15758 1-541): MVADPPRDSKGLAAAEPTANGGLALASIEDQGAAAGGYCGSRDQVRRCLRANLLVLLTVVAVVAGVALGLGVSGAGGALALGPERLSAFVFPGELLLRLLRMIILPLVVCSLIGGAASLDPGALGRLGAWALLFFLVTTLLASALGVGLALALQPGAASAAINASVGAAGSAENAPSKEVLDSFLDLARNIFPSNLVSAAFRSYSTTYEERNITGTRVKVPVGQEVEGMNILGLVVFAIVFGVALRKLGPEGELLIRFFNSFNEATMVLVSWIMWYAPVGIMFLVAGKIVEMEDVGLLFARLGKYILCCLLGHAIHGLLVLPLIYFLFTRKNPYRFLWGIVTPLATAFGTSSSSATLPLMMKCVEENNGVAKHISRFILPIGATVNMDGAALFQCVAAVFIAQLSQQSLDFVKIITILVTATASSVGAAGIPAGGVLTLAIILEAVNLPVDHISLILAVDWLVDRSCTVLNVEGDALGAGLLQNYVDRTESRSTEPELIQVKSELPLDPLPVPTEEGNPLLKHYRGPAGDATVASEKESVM
Experimental: The cell lines HEK293 and Flp-In TREx 293 were cultured at 37° C. in a 5% CO2 environment, using Dulbecco's Modified Eagle Medium (DMEM) containing 10% fetal bovine serum (FBS), 100 units/ml Penicillin G and 100 μg/ml streptomycin (P/S). The cells were seeded in a Poly-D-lysine coated 24-well plate at 6×10^4 cells/well. After culturing for 3 days in DMEM Medium containing 10% FBS and P/S, the cell were used for transport activity measurement. Before transport activity measurement, the cells were washed with transport activity measurement buffer (PBS+1 g/L D-glucose) prewarmed to 37° C. and incubated for 10 minutes at 37° C. in 500 μL of buffer. The transport activity measurement was initiated by addition of D-[^3H]serine-containing transport activity buffer at the indicated concentration. The reaction product produced after addition was incubated at 37° C. for the indicated time. The reaction was suspended by removing the D-[^3H]serine-containing transport activity buffer, and the product was washed 3 times with thoroughly cooled transport activity buffer. […] Protein concentration of the cell lysate was measured by BCA protein assay. The lysate was mixed with 1 mL of Emulsifier Safe (PerkinElmer, MA, USA) and the radioactivity of the lysate was measured with a β-scintillation counter (LSC-8000, Hitachi). […]

[7] = test system: ASCT2-knockout HAP1 cells; experiment: D-serine transport in ASCT2-knockout HAP1 cells
Excerpt: In order to establish positive candidates for D-serine transporter it was attempted to elucidate the transport function in a cell model. ASCT2 is expressed in several cell lines, constituting a strong background of D-serine accumulation and interfering with identification of novel D-serine transporters. HAP1 cells (Horizon Discovery), which are an essentially haploid cell line, can be advantageously used as a cell model for this purpose. Genetic modification is facilitated since almost all of the chromosomes are single copies, while their transcriptome analysis methods have been established and several gene knockout cell lines can be used. ASCT2-knockout HAP1 cells were therefore obtained and used as a model for D-serine screening.
The ASCT2-knockout HAP1 cells had weaker D-serine uptake compared to wild type cells (FIG. 17(A)). However, D-serine transport background was still observed in the ASCT2-knockout HAP1 cells. Proteome analysis of the HAP1 cells (Table 2) was used to detect expression of both SNAT1 and SNAT2. SNAT1 and SNAT2 belong to the “system A family” of sodium-dependent small amino acid transporters. We considered that SNAT may contribute to D-serine transport in HAP1 cells. In order to verify this hypothesis, the inhibiting effect of the system A inhibitor MeAIB on D-serine transport was examined.

[3H]D-serine transport (ASCT2) | Structure (SMILES) | cytotoxicity compared to the Mock cells [1] | D-serine toxicity with respect to cell proliferation (Flp-In TREx293 cells; ASCT2 knockdown cells (ASCT2-siRNA) compared with control cells, 2 days, XTT) | EC50 (Flp-In TREx293 cells; Flp-In-T-REx-293, 48 h, 2 days treatment, XTT assay, read-out: EC50 for cell proliferation reduction) [mM] | cytotoxicity compared to the Mock cells [2] | cell proliferation effect by serine treatment [3] | cell proliferation effect by D-serine treatment [4] | D-serine toxicity effect compared with Mock cells ([5]; 15 mM D-serine, cells transfected with SMCT2, CAT1, TAT1 and SNAT2, 2 days) | D-serine toxicity effect compared with Mock cells ([5]; 25 mM D-serine, cells transfected with GLUT5, SMCT1, SMCT2, CAT1, THTR2 and SNAT2, 2 days) | [3H]D-serine transport (HEK293 cells) | Uptake of D-[3H]serine [6] | cell proliferation (Flp-In TREx293 cells; Flp-In TREx 293 control cells, 2 days, XTT) | D-serine transport [7]
 | N[C@H](CO)C(=O)O [D-serine] | higher cytotoxicity | alleviated | 18.7 | higher cytotoxicity | decrease in cell proliferation; also recorded: lowered proliferation more than in the Mock cells | lowered proliferation more than in the Mock cells | increased toxicity | significant toxicity |  |  |  | 
notably inhibited | N[C@@H](CO)C(=O)O [L-serine] |  |  |  |  | did not affect cell proliferation |  |  |  | inhibited | inhibited | no effect | 
 | CNC(C)(C)C(=O)O [MeAIB, α-Methylaminoisobutyric acid] |  |  |  |  |  |  |  |  | not inhibited | not inhibited |  | notably reduced
